Results as given in ChEMBL document CHEMBL4507262, “Data for DCP probe A-1596586” (2021).

Columns and labels:
[1] = biological target: MAO-A (amine oxidase [flavin-containing] A) (Rattus norvegicus, UniProt P21396); assay: MAO-A Eurofins-Cerep binding assay; set-up: incubation time 60 min, incubation temperature 37°C, ligand concentration 10 nM; conditions: rat cerebral cortex, probe [3H]Ro 41-1049 (10 nM), compound concentration 10 uM, read-out: % Inhibition of Control Specific Binding (Mean n=2)
[2] = biological target: Muscarinic acetylcholine receptor M1 (Homo sapiens) (UniProt P11229); assay: M1 (h) Eurofins-Cerep binding assay; set-up: ligand concentration 2 nM; conditions: filed as antagonist, Compound concentration 10.0 uM
[3] = biological target: 5-hydroxytryptamine receptor 2B (Homo sapiens) (UniProt P41595); assay: 5-HT2B (h) Eurofins-Cerep binding assay; set-up: ligand concentration 0.2 nM; conditions: filed as agonist, Compound concentration 10.0 uM
[4] = biological target: Calcium/calmodulin-dependent protein kinase type 1 (Homo sapiens) (UniProt Q14012); conditions: Compound concentration 1000.0 nM
Calcium/calmodulin-dependent protein kinase type 1 (Homo sapiens), sequence (Q14012 whole entry, looked up): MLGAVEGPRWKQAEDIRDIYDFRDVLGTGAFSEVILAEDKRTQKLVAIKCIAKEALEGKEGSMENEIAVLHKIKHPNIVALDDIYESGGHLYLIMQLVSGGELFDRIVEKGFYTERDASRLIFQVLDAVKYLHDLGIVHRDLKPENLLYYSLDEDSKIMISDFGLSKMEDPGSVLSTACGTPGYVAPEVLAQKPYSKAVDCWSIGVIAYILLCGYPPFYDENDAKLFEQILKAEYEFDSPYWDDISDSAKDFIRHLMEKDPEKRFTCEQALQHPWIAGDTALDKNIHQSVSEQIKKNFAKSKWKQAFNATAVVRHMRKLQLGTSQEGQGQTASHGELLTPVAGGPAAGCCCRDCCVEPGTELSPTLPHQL

[5] = biological target: Calcium/calmodulin-dependent protein kinase type II subunit alpha (Homo sapiens) (UniProt Q9UQM7); conditions: Compound concentration 1000.0 nM
[6] = biological target: Cyclin-dependent kinase 4 (Homo sapiens) (UniProt P11802); conditions: Compound concentration 1000.0 nM
Cyclin-dependent kinase 4 (Homo sapiens), sequence (P11802 whole entry): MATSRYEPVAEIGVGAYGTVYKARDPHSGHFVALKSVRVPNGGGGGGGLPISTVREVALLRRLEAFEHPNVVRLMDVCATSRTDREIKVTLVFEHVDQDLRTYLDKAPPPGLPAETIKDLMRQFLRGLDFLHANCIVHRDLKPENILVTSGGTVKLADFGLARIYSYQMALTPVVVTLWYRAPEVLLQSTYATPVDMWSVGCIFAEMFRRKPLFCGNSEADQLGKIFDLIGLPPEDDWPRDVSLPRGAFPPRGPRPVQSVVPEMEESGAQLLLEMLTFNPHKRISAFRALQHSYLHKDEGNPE

[7] = biological target: Cyclin-dependent kinase 8 (Homo sapiens) (UniProt P49336); conditions: Compound concentration 1000.0 nM
[8] = biological target: Death-associated protein kinase 2 (Homo sapiens) (UniProt Q9UIK4); conditions: Compound concentration 1000.0 nM
[9] = biological target: Epidermal growth factor receptor (Homo sapiens) (UniProt P00533); conditions: Compound concentration 1000.0 nM
[10] = biological target: Ephrin type-A receptor 4 (Homo sapiens) (UniProt P54764); conditions: Compound concentration 1000.0 nM
[11] = biological target: Ephrin type-B receptor 1 (Homo sapiens) (UniProt P54762); conditions: Compound concentration 1000.0 nM
Ephrin type-B receptor 1 (Homo sapiens), sequence (P54762 whole entry): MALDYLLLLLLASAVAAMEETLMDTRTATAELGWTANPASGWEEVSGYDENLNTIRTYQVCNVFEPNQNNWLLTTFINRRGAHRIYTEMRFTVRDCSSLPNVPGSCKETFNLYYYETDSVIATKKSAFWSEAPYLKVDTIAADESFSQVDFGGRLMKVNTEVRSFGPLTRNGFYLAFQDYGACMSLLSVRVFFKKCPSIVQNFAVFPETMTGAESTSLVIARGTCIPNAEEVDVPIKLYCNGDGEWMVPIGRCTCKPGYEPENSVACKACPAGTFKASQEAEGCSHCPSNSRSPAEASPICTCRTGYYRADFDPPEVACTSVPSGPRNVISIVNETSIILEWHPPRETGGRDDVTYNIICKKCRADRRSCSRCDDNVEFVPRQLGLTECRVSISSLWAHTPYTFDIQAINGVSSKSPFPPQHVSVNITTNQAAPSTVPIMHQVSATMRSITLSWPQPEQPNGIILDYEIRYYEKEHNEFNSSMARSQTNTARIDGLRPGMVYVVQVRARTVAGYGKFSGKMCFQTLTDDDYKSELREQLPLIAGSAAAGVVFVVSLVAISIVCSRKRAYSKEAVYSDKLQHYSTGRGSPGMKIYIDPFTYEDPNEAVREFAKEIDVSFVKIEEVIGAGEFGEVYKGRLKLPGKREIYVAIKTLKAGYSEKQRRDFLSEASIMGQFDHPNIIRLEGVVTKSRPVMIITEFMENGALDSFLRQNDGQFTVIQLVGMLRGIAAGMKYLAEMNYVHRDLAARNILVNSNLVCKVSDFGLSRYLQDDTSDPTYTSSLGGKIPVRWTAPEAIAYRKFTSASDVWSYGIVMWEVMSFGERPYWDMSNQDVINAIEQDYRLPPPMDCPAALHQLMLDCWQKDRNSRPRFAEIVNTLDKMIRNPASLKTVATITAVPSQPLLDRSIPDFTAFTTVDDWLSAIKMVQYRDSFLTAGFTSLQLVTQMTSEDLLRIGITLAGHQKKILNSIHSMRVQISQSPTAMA

[12] = biological target: Fibroblast growth factor receptor 1 (Homo sapiens) (UniProt P11362); conditions: Compound concentration 1000.0 nM
[13] = biological target: Tyrosine-protein kinase Fgr (Homo sapiens) (UniProt P09769); conditions: Compound concentration 1000.0 nM
[14] = biological target: Vascular endothelial growth factor receptor 1 (Homo sapiens) (UniProt P17948); conditions: Compound concentration 1000.0 nM
[15] = biological target: Receptor-type tyrosine-protein kinase FLT3 (Homo sapiens) (UniProt P36888); conditions: Compound concentration 1000.0 nM
[16] = system: Receptor-type tyrosine-protein kinase FLT3 (Homo sapiens), P36888 [UNDEFINED MUTATION]; conditions: Compound concentration 1000.0 nM
[17] = system: Receptor-type tyrosine-protein kinase FLT3 (Homo sapiens), P36888 [UNDEFINED MUTATION]; conditions: Compound concentration 1000.0 nM; remark: listed apart in the source
[18] = system: Receptor-type tyrosine-protein kinase FLT3 (Homo sapiens), P36888 [R834Q]; conditions: Compound concentration 1000.0 nM
[19] = biological target: Receptor-type tyrosine-protein kinase FLT3 (Homo sapiens) (UniProt P36888); conditions: Compound concentration 1000.0 nM; remark: listed apart in the source
[20] = biological target: Mitogen-activated protein kinase kinase kinase kinase 1 (Homo sapiens) (UniProt Q92918); conditions: Compound concentration 1000.0 nM
[21] = biological target: Mitogen-activated protein kinase 10 (Homo sapiens) (UniProt P53779); conditions: Compound concentration 1000.0 nM
[22] = system: Mast/stem cell growth factor receptor Kit (Homo sapiens), P10721 [A829P]; conditions: Compound concentration 1000.0 nM
[23] = system: Leucine-rich repeat serine/threonine-protein kinase 2 (Homo sapiens), Q5S007 [G2019S]; conditions: Compound concentration 1000.0 nM
[24] = biological target: Mitogen-activated protein kinase kinase kinase kinase 4 (Homo sapiens) (UniProt O95819); conditions: Compound concentration 1000.0 nM
[25] = biological target: Dual specificity mitogen-activated protein kinase kinase 7 (Homo sapiens) (UniProt O14733); conditions: Compound concentration 1000.0 nM
[26] = biological target: Mitogen-activated protein kinase kinase kinase 11 (Homo sapiens) (UniProt Q16584); conditions: Compound concentration 1000.0 nM
[27] = biological target: Serine/threonine-protein kinase 3 (Homo sapiens) (UniProt Q13188); conditions: Compound concentration 1000.0 nM
[28] = biological target: Serine/threonine-protein kinase 24 (Homo sapiens) (UniProt Q9Y6E0); conditions: Compound concentration 1000.0 nM
Serine/threonine-protein kinase 24 (Homo sapiens), sequence (Q9Y6E0 whole entry, looked up): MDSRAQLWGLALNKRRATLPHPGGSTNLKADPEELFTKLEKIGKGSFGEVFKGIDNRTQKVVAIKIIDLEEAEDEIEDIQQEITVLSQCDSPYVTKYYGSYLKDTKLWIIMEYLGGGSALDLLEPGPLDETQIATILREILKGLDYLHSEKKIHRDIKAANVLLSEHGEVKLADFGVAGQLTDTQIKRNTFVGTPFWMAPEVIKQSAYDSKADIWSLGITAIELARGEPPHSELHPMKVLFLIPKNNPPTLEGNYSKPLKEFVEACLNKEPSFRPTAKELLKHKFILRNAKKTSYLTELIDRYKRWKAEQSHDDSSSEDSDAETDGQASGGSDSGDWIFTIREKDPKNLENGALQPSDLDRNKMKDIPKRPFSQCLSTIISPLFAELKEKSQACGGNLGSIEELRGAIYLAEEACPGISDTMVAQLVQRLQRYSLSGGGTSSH

[29] = biological target: Myosin light chain kinase 2, skeletal/cardiac muscle (Homo sapiens) (UniProt Q9H1R3); conditions: Compound concentration 1000.0 nM
Myosin light chain kinase 2, skeletal/cardiac muscle (Homo sapiens), sequence (Q9H1R3 whole entry): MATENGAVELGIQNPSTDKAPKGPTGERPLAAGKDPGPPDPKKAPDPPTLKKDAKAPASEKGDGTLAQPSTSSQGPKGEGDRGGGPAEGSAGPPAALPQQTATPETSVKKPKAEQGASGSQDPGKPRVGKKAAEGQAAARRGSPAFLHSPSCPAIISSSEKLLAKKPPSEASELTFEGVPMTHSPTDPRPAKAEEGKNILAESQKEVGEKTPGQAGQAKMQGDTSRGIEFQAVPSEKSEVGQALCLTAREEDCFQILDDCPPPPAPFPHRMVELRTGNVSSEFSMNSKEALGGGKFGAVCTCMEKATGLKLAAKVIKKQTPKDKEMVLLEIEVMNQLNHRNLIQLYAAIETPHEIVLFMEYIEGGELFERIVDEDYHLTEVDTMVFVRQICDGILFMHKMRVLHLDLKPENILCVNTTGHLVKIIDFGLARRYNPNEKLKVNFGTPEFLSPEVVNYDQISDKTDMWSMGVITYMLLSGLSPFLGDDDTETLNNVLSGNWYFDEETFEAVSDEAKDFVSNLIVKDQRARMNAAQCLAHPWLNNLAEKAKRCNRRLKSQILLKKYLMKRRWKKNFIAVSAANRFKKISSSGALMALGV

[30] = biological target: Uncharacterized serine/threonine-protein kinase SBK3 (Homo sapiens) (UniProt P0C264); conditions: Compound concentration 1000.0 nM
Uncharacterized serine/threonine-protein kinase SBK3 (Homo sapiens), sequence (P0C264 whole entry): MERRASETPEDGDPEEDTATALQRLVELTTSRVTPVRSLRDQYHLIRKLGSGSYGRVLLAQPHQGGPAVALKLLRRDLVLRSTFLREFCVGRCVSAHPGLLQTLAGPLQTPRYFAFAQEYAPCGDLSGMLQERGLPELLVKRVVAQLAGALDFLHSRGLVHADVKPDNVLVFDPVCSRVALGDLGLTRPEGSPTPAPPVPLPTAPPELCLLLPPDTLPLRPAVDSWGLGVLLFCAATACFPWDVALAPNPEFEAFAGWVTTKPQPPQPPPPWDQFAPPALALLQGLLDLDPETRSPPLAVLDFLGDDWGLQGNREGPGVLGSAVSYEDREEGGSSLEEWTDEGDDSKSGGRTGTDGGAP

[31] = biological target: Serine/threonine-protein kinase 35 (Homo sapiens) (UniProt Q8TDR2); conditions: Compound concentration 1000.0 nM
Serine/threonine-protein kinase 35 (Homo sapiens), sequence (Q8TDR2 whole entry): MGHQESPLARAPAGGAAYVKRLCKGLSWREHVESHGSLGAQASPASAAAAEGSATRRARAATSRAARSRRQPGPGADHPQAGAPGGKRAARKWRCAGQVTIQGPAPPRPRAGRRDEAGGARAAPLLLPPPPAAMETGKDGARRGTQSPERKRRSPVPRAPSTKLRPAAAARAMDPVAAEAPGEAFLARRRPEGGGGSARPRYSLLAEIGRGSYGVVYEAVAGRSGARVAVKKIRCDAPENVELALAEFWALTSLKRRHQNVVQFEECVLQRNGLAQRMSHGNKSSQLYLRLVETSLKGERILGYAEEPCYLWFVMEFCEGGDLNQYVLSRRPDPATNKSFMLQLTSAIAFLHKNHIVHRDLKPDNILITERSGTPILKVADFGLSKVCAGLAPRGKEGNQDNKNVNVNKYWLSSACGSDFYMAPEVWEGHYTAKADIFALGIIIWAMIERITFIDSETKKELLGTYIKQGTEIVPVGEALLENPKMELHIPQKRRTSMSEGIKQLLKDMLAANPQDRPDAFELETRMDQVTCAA

[32] = biological target: TGF-beta receptor type-2 (Homo sapiens) (UniProt P37173); conditions: Compound concentration 1000.0 nM
TGF-beta receptor type-2 (Homo sapiens), sequence (P37173 whole entry): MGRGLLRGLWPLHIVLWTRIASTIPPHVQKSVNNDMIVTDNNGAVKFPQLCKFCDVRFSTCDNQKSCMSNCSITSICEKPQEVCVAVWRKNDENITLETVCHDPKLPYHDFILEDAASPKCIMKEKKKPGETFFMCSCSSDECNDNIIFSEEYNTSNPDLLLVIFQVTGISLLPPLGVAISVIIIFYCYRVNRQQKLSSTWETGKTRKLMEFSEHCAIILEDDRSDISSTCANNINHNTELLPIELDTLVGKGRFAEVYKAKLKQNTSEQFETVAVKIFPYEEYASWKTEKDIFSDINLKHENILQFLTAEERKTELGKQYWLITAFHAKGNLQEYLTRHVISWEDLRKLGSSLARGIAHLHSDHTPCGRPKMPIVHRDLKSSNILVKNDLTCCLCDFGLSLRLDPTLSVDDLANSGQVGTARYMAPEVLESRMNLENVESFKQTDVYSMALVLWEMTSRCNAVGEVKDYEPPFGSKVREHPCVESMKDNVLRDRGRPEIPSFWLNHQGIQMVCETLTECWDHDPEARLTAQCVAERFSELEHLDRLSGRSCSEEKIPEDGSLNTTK

[33] = biological target: Non-receptor tyrosine-protein kinase TNK1 (Homo sapiens) (UniProt Q13470); conditions: Compound concentration 1000.0 nM
Non-receptor tyrosine-protein kinase TNK1 (Homo sapiens), sequence (Q13470 whole entry): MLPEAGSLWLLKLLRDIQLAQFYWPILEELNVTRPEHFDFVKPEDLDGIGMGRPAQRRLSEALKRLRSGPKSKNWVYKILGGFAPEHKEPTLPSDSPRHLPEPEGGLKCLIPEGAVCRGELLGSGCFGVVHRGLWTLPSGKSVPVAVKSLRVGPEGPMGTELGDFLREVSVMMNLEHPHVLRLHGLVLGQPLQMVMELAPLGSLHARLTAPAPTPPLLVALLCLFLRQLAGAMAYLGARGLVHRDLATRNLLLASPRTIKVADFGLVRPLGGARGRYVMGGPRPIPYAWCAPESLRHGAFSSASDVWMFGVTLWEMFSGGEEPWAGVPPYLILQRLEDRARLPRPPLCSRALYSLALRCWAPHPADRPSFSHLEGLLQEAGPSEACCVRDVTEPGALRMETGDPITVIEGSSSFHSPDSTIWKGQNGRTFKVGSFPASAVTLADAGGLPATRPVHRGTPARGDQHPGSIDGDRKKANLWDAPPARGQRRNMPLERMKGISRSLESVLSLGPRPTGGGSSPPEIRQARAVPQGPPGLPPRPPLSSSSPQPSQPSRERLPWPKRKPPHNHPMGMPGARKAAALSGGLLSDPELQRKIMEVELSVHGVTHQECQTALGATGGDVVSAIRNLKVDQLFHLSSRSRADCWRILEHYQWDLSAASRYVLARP

[34] = biological target: Non-receptor tyrosine-protein kinase TYK2 (Homo sapiens) (UniProt P29597); conditions: Compound concentration 1000.0 nM
[35] = biological target: T1, Alpha-2A adrenergic receptor (Homo sapiens) (UniProt P08913); conditions: Compound concentration 10.0 uM
T1 sequence (whole entry): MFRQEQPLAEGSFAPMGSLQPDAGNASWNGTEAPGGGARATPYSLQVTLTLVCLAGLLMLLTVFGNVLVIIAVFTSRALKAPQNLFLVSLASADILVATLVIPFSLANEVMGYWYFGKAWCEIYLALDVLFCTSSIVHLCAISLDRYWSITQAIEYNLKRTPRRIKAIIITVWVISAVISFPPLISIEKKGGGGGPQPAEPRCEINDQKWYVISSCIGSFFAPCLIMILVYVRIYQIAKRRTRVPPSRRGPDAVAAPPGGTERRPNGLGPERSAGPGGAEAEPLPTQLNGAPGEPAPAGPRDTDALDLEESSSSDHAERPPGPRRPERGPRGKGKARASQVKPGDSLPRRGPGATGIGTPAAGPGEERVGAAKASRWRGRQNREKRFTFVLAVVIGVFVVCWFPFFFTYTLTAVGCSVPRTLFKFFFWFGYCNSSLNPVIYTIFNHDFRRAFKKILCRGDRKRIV

[36] = biological target: Beta-3 adrenergic receptor (Homo sapiens) (UniProt P13945); conditions: Compound concentration 10.0 uM
[37] = biological target: Sigma intracellular receptor 2 (Homo sapiens, UniProt Q5BJF2); conditions: Compound concentration 10.0 uM
Sigma intracellular receptor 2, sequence (Q5BJF2 whole entry): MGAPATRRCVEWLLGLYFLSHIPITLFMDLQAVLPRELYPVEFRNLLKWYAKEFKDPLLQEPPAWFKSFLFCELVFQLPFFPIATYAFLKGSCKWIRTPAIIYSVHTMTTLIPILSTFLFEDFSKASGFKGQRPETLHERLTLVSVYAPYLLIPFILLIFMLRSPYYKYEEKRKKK

**Q.** With COc1ccc2c(c1)O[C@H](c1ccc(OC)c(OC)c1)C[C@@H]2NC(=O)C1(c2ccc3c(c2)OC(F)(F)O3)CC1 [A-1596584] as the compound, how does the inhibition at 60 min, 10 µM [1] read?
**A.** 6.4%

**Q.** What about the % Inhibition of Control Specific Binding (Mean n=2) [2] of the same compound?
**A.** -28%

**Q.** And the % Inhibition of Control Specific Binding (Mean n=2) [3]?
**A.** -14.6%

**Q.** What about the residual activity [4] of the same compound?
**A.** 100%

**Q.** And the residual activity [5]?
**A.** 100%

**Q.** What about the residual activity [6] of the same compound?
**A.** 100%

**Q.** And the residual activity [7]?
**A.** 100%

**Q.** And the residual activity [8]?
**A.** 98%

**Q.** What about the residual activity [9] of the same compound?
**A.** 92%

**Q.** And the residual activity [10]?
**A.** 91%

**Q.** And the residual activity [11]?
**A.** 100%

**Q.** What about the residual activity [12] of the same compound?
**A.** 87%

**Q.** What about the residual activity [13] of the same compound?
**A.** 87%

**Q.** What about the residual activity [14] of the same compound?
**A.** 100%

**Q.** And the residual activity [15]?
**A.** 100%

**Q.** What about the residual activity [16] of the same compound?
**A.** 100%

**Q.** And the residual activity [17]?
**A.** 87%

**Q.** And the residual activity [18]?
**A.** 100%

**Q.** What about the residual activity [19] of the same compound?
**A.** 83%

**Q.** And the residual activity [20]?
**A.** 98%

**Q.** What about the residual activity [21] of the same compound?
**A.** 100%

**Q.** And the residual activity [22]?
**A.** 69%

**Q.** What about the residual activity [23] of the same compound?
**A.** 100%

**Q.** What about the residual activity [24] of the same compound?
**A.** 100%

**Q.** And the residual activity [25]?
**A.** 100%

**Q.** What about the residual activity [26] of the same compound?
**A.** 100%

**Q.** What about the residual activity [27] of the same compound?
**A.** 100%

**Q.** What about the residual activity [28] of the same compound?
**A.** 92%

**Q.** What about the residual activity [29] of the same compound?
**A.** 95%

**Q.** What about the residual activity [30] of the same compound?
**A.** 100%

**Q.** What about the residual activity [31] of the same compound?
**A.** 100%

**Q.** What about the residual activity [32] of the same compound?
**A.** 100%

**Q.** What about the residual activity [33] of the same compound?
**A.** 97%

**Q.** And the residual activity [34]?
**A.** 100%

**Q.** And the inhibition [35]?
**A.** 14.9%

**Q.** And the inhibition [36]?
**A.** -7.53%

**Q.** What about the inhibition [37] of the same compound?
**A.** 85.3%

**Q.** Which inhibition at 60 min, 10 µM [1] does the source give for COc1ccc2c(c1)O[C@@H](c1ccc(OC)c(OC)c1)C[C@H]2NC(=O)C1(c2ccc3c(c2)OC(F)(F)O3)CC1 [A-1596586] here?
**A.** -1.1%

**Q.** What about the % Inhibition of Control Specific Binding (Mean n=2) [2] of the same compound?
**A.** -20.6%

**Q.** What about the % Inhibition of Control Specific Binding (Mean n=2) [3] of the same compound?
**A.** 8.5%

**Q.** And the residual activity [4]?
**A.** 100%

**Q.** And the residual activity [5]?
**A.** 98%

**Q.** And the residual activity [6]?
**A.** 100%

**Q.** What about the residual activity [7] of the same compound?
**A.** 100%

**Q.** What about the residual activity [8] of the same compound?
**A.** 98%

**Q.** What about the residual activity [9] of the same compound?
**A.** 96%

**Q.** What about the residual activity [10] of the same compound?
**A.** 100%

**Q.** What about the residual activity [11] of the same compound?
**A.** 87%

**Q.** What about the residual activity [12] of the same compound?
**A.** 90%

**Q.** What about the residual activity [13] of the same compound?
**A.** 94%

**Q.** What about the residual activity [14] of the same compound?
**A.** 100%

**Q.** What about the residual activity [15] of the same compound?
**A.** 100%

**Q.** And the residual activity [16]?
**A.** 100%

**Q.** And the residual activity [17]?
**A.** 76%

**Q.** What about the residual activity [18] of the same compound?
**A.** 100%

**Q.** And the residual activity [19]?
**A.** 80%

**Q.** And the residual activity [20]?
**A.** 90%

**Q.** What about the residual activity [21] of the same compound?
**A.** 99%

**Q.** What about the residual activity [22] of the same compound?
**A.** 75%

**Q.** And the residual activity [23]?
**A.** 90%

**Q.** And the residual activity [24]?
**A.** 100%

**Q.** What about the residual activity [25] of the same compound?
**A.** 88%

**Q.** And the residual activity [26]?
**A.** 100%

**Q.** What about the residual activity [27] of the same compound?
**A.** 96%

**Q.** What about the residual activity [28] of the same compound?
**A.** 96%

**Q.** What about the residual activity [29] of the same compound?
**A.** 90%

**Q.** And the residual activity [30]?
**A.** 100%

**Q.** And the residual activity [31]?
**A.** 98%

**Q.** And the residual activity [32]?
**A.** 87%

**Q.** And the residual activity [33]?
**A.** 100%

**Q.** What about the residual activity [34] of the same compound?
**A.** 91%

**Q.** And the inhibition [35]?
**A.** 17.6%

**Q.** And the inhibition [36]?
**A.** 3.77%

**Q.** What about the inhibition [37] of the same compound?
**A.** 85.8%
